Results published in patent US20120046363A1, “DOCOSAHEXAENOIC ACID FOR THE TREATMENT OF HEART FAILURE” (University of Maryland, Baltimore, priority 2009, published 2012).

What was measured:
Format in all cases: in vivo, male Wistar rats
[1] = test system: mitochondrial permeability transition pore (MPTP); experiment: Ca2+ retention capacity (index of MPTP opening) in mitochondria from diet-treated rats, Series 1
Experimental: (§1) Experimental Design: The animal protocol was conducted according to the Guideline for the Care and Use of Laboratory Animals (NIH publication 85-23) and was approved by the University of Maryland School of Medicine Institutional Animal Care and Use Committee. Investigators were blinded to treatment when measurements were performed. The animals were maintained on a reverse 12-h light-dark cycle and all procedures were performed in the fed state between 3 and 6 h from the start of the dark phase. Two series of experiments were performed. In the initial studies (Series 1) male Wistar rats weighing 190-200 g were fed a standard low fat diet (CTRL) or modified standard diet containing DHA or EPA at 2.5% of total caloric intake, which corresponds to a human intake of approximately 5.5 g/day (calculated assuming an energy intake of 2000 kcal/day and 9 kcal/g of fat). The rats were maintained on the diet for 8 weeks. Following dietary treatment, rats were anesthetized with isoflurane, blood was drawn, and the heart was harvested for biochemical analysis and mitochondrial isolation. Plasma from these animals was analyzed for free fatty acids and triglyceride levels, and cardiac mitochondria for respiration, Ca^2+ retention capacity (an index of MPTP opening), VDAC and cyclophilin D, and membrane phospholipid composition as described below. Following completion of Series 1, a second series of animal studies (Series 2) were performed to assess mitochondrial swelling using a light scattering assay, and the effects of different respiratory substrates on Ca^2+ retention capacity in mitochondria from control and DHA supplemented rats. Animals were treated for 10 weeks and were fed either CTRL or DHA (2.5% of total caloric intake).
(§2) Mitochondrial Preparation: Mitochondria were isolated as previously described^228. LV tissue (400-500 mg) was minced and homogenized in 1:10 cold modified Chappel-Perry buffer (100 mM KCl, 50 mM MOPS, 5 mM MgSO4, 1 mM ATP, 1 mM EGTA, 2 mg/ml BSA), and the homogenates were centrifuged at 500×g. Subsequent centrifugation allowed for separation and purification of the subsarcolemmal mitochondria. The concentration of mitochondrial protein was measured by the Lowry method using bovine serum albumin as a standard.

[2] = test system: isolated cardiac mitochondria; experiment: Mitochondrial respiration (oxygen consumption, Clark-type electrode); details: for P:O: measurements without oligomycin; for RCR: ratio of State 3 to State 4 rate with oligomycin
Experimental: as §1, §2
Mitochondrial respiration: Mitochondrial oxygen consumption was measured using a Clark-type oxygen electrode (Qubit Systems, Ontario, Canada). Mitochondria (0.25 mg protein) were suspended in 0.5 ml solution consisting of 100 mM KCl, 50 mM MOPS, 5 mM KH2PO4, 1 mM EGTA, and 0.5 mg fatty acid-free bovine serum albumin, at pH 7.4 and 37° C. State 3 (ADP-stimulated) and state 4 (non-phosphorylating) respiration were measured with glutamate+malate (10 and 5 mM, respectively), pyruvate+malate (10 and 5 mM, respectively) and palmitoylcarnitine+malate (40 μM and 5 mM, respectively) to assess respiration through complex I-IV, while succinate+rotenone (10 mM and 7.5 μM, respectively), were used to assess respiration through complex II-IV of the ETC exclusively. State 4 respiration was also measured in the presence of oligomycin to inhibit the mitochondrial ATP synthase.

[3] = test system: VDAC1; experiment: Western blot of isolated mitochondria, densitometry; details: CTRL 1.00 ± 0.13
Experimental: (§3) Metabolic and Biochemical Parameters: Free fatty acids and triglycerides were assessed in the plasma using commercially available kits (Wako, Richmond, Va.). Mitochondrial proteins were separated by electrophoresis in 4-12% NuPage gels, transferred onto a nitrocellulose membrane, and incubated with specific antibodies to cyclophilin D and voltage-dependent anion channel (VDAC) (1:10,000 and 1:5000, respectively, both from Mitosciences, Eugene, Oreg.). Fluorescence-conjugated secondary antibodies (IRDye 800, 1:10,000; LI-COR Bioscience) were used for incubation before the membranes were scanned with Odyssey® infrared imaging system (LI-COR Bioscience). The digitized image was analyzed with Odyssey® software.

[4] = test system: cyclophilin D; experiment: as above; details: CTRL 1.00 ± 0.08
Experimental: as §3

[5] = test system: VDAC2; experiment: as above; details: CTRL 1.00 ± 0.15
Experimental: as §3

[6] = test system: isolated cardiac mitochondria; experiment: Cardiac mitochondrial phospholipid fatty acid composition by gas chromatography; details: Series 1, 8 weeks diet, mean ± SEM
Experimental: as §1, §2
(§4) Membrane Lipid Composition: Cardiac phospholipid fatty acid composition was assessed in a subset of animals from Series 1 (n=7-9/group) on isolated cardiac mitochondria homogenates by gas chromatography with a flame ionization detector according to a modification of the transesterification method as previously described^228. CL composition was assessed on isolated cardiac mitochondria by electrospray ionization mass spectrometry using 1,1′,2,2′-tetramyristoyl CL as an internal standard as previously described (n=9/group)^228,229, 230.

[7] = test system: isolated cardiac mitochondria; experiment: Cardiac mitochondrial cardiolipin (CL) content and composition by electrospray ionization mass spectrometry; details: Series 1, 8 weeks diet; CTRL 10.7±0.8; DHA vs CTRL p<0.08
Experimental: as §1, with “Following completion of Series 1, a second series of animal studies (Series 2) were performed to assess mitochondrial swelling using a light scattering assay, and the effects of different respiratory substrates on Ca^2+ retention capacity in mitochondria from control and DHA supplemented rats. Animals were treated for 10 weeks and were fed either CTRL or DHA (2.5% of total caloric intake).” left out
Mitochondrial Preparation: Mitochondria were isolated as previously described^228. […] The concentration of mitochondrial protein was measured by the Lowry method using bovine serum albumin as a standard.
as §4

In the case of CC/C=C\C/C=C\C/C=C\C/C=C\C/C=C\C/C=C\CCC(=O)O [DHA, docosahexaenoic acid], the “Ca2+ required to elicit MPTP” value ([1]; glutamate + malate, without CsA, CTRL 83.0±8.7) is reported as 134.9±11.4 nmol Ca^2+/mg mito prot, the “Ca2+ required to elicit MPTP” value ([1]; mitochondria of diet group with addition of 100 nM CsA) is reported as 147.0±17.3 nmol Ca^2+/mg mito prot and the “State 4 (+ oligomycin) respiration” value ([2]; Glutamate + Malate) is reported as 17.2 ± 2.0 ng atoms O · mg^−1 · min^−1. For the same compound, the “State 4 (− oligomycin) respiration” value ([2]; Glutamate + Malate) was 35.3 ± 2.9 ng atoms O · mg^−1 · min^−1, the “State 3 respiration” value ([2]; Glutamate + Malate, mean ± SEM) was 115.2 ± 16.2 ng atoms O · mg^−1 · min^−1 and the “P:O” value ([2]; Glutamate + Malate) was 2.37 ± 0.18. The RCR ([2]; Glutamate + Malate) was 7.0 ± 0.9, the “State 3 respiration” value ([2]; Palmityl-carnitine + Malate) was 265.7 ± 34.4 ng atoms O · mg^−1 · min^−1 and the “State 4 (+ oligomycin) respiration” value ([2]; Palmityl-carnitine + Malate) was 24.9 ± 2.6 ng atoms O · mg^−1 · min^−1. For the same compound, the “State 4 (− oligomycin) respiration” value ([2]; Palmityl-carnitine + Malate) was 42.6 ± 1.9 ng atoms O · mg^−1 · min^−1, the “P:O” value ([2]; Palmityl-carnitine + Malate) was 2.50 ± 0.12 and the RCR ([2]; Palmityl-carnitine + Malate) was 11.4 ± 1.8. For the same compound, the “State 3 respiration” value ([2]; Pyruvate + Malate) was 240.4 ± 28.7 ng atoms O · mg^−1 · min^−1, the “State 4 (+ oligomycin) respiration” value ([2]; Pyruvate + Malate) was 34.8 ± 4.2 ng atoms O · mg^−1 · min^−1 and the “State 4 (− oligomycin) respiration” value ([2]; Pyruvate + Malate) was 54.0 ± 3.2 ng atoms O · mg^−1 · min^−1. The “P:O” value ([2]; Pyruvate + Malate) was 2.48 ± 0.09, the RCR ([2]; Pyruvate + Malate) was 7.7 ± 1.0 and the “State 3 respiration” value ([2]; Succinate + Rotenone) was 325.2 ± 19.6 ng atoms O · mg^−1 · min^−1. For the same compound, the “State 4 (+ oligomycin) respiration” value ([2]; Succinate + Rotenone) was 84.7 ± 10.1 ng atoms O · mg^−1 · min^−1, the “State 4 (− oligomycin) respiration” value ([2]; Succinate + Rotenone) was 99.3 ± 7.0 ng atoms O · mg^−1 · min^−1 and the “P:O” value ([2]; Succinate + Rotenone) was 1.48 ± 0.06. The RCR ([2]; Succinate + Rotenone) was 4.1 ± 0.4, the “decrease of state 4 respiration” value ([2]; pyruvate+malate, absence and presence of oligomycin, vs control, p<0.05) was 30% and the “increase of RCR” value ([2]; pyruvate+malate, vs control, p<0.05) was 70%. The “VDAC 1 protein, densitometry” value [3] was 1.03 ± 0.22, the “Cyclophilin D protein, densitometry” value [4] was 1.01 ± 0.10 and the “VDAC 2 protein, densitometry” value [5] was 1.02 ± 0.20. For the same compound, the “Mitochondrial phospholipid C18:0” value [6] was 18.9 ± 0.5 molar percent of total phospholipid fatty acid, the “Mitochondrial phospholipid C18:1n7” value [6] was 3.7 ± 0.2 molar percent of total phospholipid fatty acid and the “Mitochondrial phospholipid C18:1n9” value [6] was 13.0 ± 1.0 molar percent of total phospholipid fatty acid. For the same compound, the “Mitochondrial phospholipid C18:2n6” value [6] was 23.1 ± 1.0 molar percent of total phospholipid fatty acid, the “Mitochondrial phospholipid Total ω-3 PUFA” value [6] was 19.2 ± 0.5 molar percent of total phospholipid fatty acid and the “Mitochondrial phospholipid C16:0” value ([6]; n = 7-8/group) was 13.3 ± 0.5 molar percent of total phospholipid fatty acid. For the same compound, the “Mitochondrial phospholipid C20:3n6” value ([6]; BQL in control) was 1.6 ± 0.2 molar percent of total phospholipid fatty acid, the “Mitochondrial phospholipid C22:6n3” value ([6]; DHA) was 14.8 ± 0.6 molar percent of total phospholipid fatty acid and the “Mitochondrial phospholipid C20:5n3” value ([6]; EPA, BQL in control) was 4.4 ± 0.3 molar percent of total phospholipid fatty acid. For the same compound, the “Mitochondrial phospholipid C20:4n6” value ([6]; arachidonic acid (ARA)) was 5.7 ± 0.2 molar percent of total phospholipid fatty acid and the “total CL content” value [7] was 13.2±0.8 nmols/mg mito prot.
